According to ChEMBL document CHEMBL3992527, “Design and Synthesis of Novel Nonsteroidal Anti-Inflammatory Drugs and Carbonic Anhydrase Inhibitors Hybrids (NSAIDs-CAIs) for the Treatment of Rheumatoid Arthritis” (J Med Chem, 2017):
Activity calls are given as the source filed them.

How the values were obtained:
Carbonic anhydrase 12 = Carbonic anhydrase 12 (Homo sapiens, UniProt O43570); experiment: Inhibition of recombinant human CA12 preincubated for 15 mins by stopped-flow CO2 hydration assay
Sequence of Carbonic anhydrase 12 (O43570 whole entry): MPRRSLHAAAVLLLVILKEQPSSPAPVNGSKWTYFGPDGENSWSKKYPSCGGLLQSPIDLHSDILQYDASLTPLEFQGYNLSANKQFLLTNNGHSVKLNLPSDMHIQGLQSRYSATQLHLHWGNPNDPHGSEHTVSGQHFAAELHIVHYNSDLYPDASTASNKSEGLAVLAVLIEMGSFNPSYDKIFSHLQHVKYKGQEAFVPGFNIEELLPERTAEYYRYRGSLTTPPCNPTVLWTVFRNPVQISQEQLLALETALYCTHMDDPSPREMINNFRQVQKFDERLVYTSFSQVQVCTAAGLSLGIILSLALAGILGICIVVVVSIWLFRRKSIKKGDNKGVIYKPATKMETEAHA

Carbonic anhydrase 1 = Carbonic anhydrase 1 (Homo sapiens, UniProt P00915); experiment: Inhibition of recombinant human CA1 preincubated for 15 mins by stopped-flow CO2 hydration assay
Sequence of Carbonic anhydrase 1 (P00915 whole entry): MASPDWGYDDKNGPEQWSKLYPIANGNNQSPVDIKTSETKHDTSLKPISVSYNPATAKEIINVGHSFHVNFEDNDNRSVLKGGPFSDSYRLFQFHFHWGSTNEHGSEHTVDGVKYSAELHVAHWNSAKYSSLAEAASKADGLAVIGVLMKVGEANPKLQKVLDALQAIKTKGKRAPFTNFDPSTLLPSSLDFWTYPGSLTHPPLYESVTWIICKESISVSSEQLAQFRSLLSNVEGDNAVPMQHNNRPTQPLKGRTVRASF

Carbonic anhydrase 4 = Carbonic anhydrase 4 (Homo sapiens, UniProt P22748)
Sequence of Carbonic anhydrase 4 (P22748 whole entry): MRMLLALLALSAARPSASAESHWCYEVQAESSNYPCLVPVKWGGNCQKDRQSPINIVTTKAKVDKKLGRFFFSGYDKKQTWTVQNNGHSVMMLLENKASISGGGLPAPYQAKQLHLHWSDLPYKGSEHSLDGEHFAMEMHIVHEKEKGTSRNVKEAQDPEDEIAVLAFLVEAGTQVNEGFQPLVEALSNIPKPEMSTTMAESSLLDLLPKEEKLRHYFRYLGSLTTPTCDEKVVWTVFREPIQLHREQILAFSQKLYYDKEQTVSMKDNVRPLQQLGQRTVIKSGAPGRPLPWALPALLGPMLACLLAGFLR
Description: Inhibition of recombinant human CA4 preincubated for 15 mins by stopped-flow CO2 hydration assay

Carbonic anhydrase 2 = Carbonic anhydrase 2 (Homo sapiens, UniProt P00918); experiment: Inhibition of recombinant human CA2 preincubated for 15 mins by stopped-flow CO2 hydration assay
Carbonic anhydrase 7 = Carbonic anhydrase 7 (Homo sapiens, UniProt P43166); experiment: Inhibition of recombinant human CA7 preincubated for 15 mins by stopped-flow CO2 hydration assay
Sequence of Carbonic anhydrase 7 (P43166 whole entry): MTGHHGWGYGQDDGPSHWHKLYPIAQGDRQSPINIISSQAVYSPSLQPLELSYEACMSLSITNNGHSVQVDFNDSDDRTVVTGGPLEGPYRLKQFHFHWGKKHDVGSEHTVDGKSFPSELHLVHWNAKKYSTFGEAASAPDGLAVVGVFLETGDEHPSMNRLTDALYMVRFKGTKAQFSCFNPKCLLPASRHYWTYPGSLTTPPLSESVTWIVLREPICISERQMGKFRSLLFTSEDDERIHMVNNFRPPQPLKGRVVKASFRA

Carbonic anhydrase 9 = Carbonic anhydrase 9 (Homo sapiens, UniProt Q16790)
Description: Inhibition of recombinant human CA9 catalytic domain preincubated for 15 mins by stopped-flow CO2 hydration assay

Rattus norvegicus [1] = experiment: Effect on normal pain sensitivity in complete Freund's adjuvant-induced Sprague-Dawley rat rheumatoid arthritis model assessed as change in contralateral paw withdrawal threshold at 10 mg/kg, po administered once on day 14 post complete Freund's adjuvant challenge measured after 15 to 75 mins by analgesimetry; type: ADME, organism-based; details: in vivo
Rattus norvegicus [2] = experiment: (§1) Antihyperalgesic activity in complete Freund's adjuvant-induced Sprague-Dawley rat rheumatoid arthritis model assessed as increase in weight tolerance on ipsilateral paw at 10 mg/kg, po administered once on day 14 post complete Freund's adjuvant challenge measured after 15 to 75 mins post dose by analgesimetry; type: functional, organism-based
Rattus norvegicus [3] = experiment: (§2) Antihyperalgesic activity in complete Freund's adjuvant-induced Sprague-Dawley rat rheumatoid arthritis model assessed as improvement in postural imbalance by measuring difference between weight burdened on contralateral and ipsilateral paw at 10 mg/kg, po administered once on day 14 post complete Freund's adjuvant challenge measured after 15 to 30 mins by incapacitance test; type: functional, organism-based
Rattus norvegicus [4] = experiment: as §1, with “45” for “15 to 75”; type: functional, organism-based
Rattus norvegicus [5] = experiment: as §1, with “at” for “after 15 to”; type: functional, organism-based
Rattus norvegicus [6] = experiment: Antihyperalgesic activity in complete Freund's adjuvant-induced Sprague-Dawley rat rheumatoid arthritis model assessed as improvement in postural imbalance by measuring difference between weight burdened on contralateral and ipsilateral paw at 10 mg/kg, po administered once on day 14 post complete Freund's adjuvant challenge measured at 30 mins post dose by incapacitance test (reference value: 45.6 +/- …; type: functional
Rattus norvegicus [7] = experiment: as §1, with “as” for “as increase in”, “at 30” for “after 15 to 75”, “analgesimetry (reference value: 47.6 +/- 1.2 g)” for “analgesimetry”; type: functional
Rattus norvegicus [8] = experiment: Antihyperalgesic activity in complete Freund's adjuvant-induced Sprague-Dawley rat rheumatoid arthritis model assessed as improvement in postural imbalance by measuring difference between weight burdened on contralateral and ipsilateral paw at 10 mg/kg, po administered once on day 14 post complete Freund's adjuvant challenge measured at 45 mins post dose by incapacitance test (reference value: 45.6 +/- …; type: functional
Rattus norvegicus [9] = experiment: as §1, with “as” for “as increase in”, “at 45” for “after 15 to 75”, “analgesimetry (reference value: 47.6 +/- 1.2 g)” for “analgesimetry”; type: functional
Rattus norvegicus [10] = experiment: as §2, with “at 60” for “after 15 to 30”, “mins post dose” for “mins”; type: functional, organism-based
Rattus norvegicus [11] = experiment: as §1, with “30” for “15”, “45” for “75”; type: functional, organism-based
Rattus norvegicus [12] = experiment: as §2, with “100” for “10”; type: functional, organism-based
Rattus norvegicus [13] = experiment: as §1, with “100” for “10”, “30” for “75”; type: functional, organism-based

| Ki (Carbonic anhydrase 12) [nM] | Ki (Carbonic anhydrase 1) [nM] | Ki (Carbonic anhydrase 2) [nM] | Ki (Carbonic anhydrase 7) [nM] | Ki (Carbonic anhydrase 9) [nM] | Compound | Activity (Rattus norvegicus [1]) | further results |
| --- | --- | --- | --- | --- | --- | --- | --- |
| > 100 | > 100 | > 100 | > 100 | > 100 | COc1ccc2cc([C@H](C)C(=O)NCCOc3ccc4oc(=O)ccc4c3)ccc2c1 | – | – |
| – | > 100 | > 100 | > 100 | > 100 | COc1ccc2cc([C@H](C)C(=O)NCCOc3ccc4ccc(=O)oc4c3)ccc2c1 | – | – |
| – | > 100 | > 100 | > 100 | – | CC(C(=O)NCCOc1ccc2oc(=O)ccc2c1)c1ccc(-c2ccccc2)c(F)c1 (racemic) | Non-Toxic | Activity (Rattus norvegicus [2]): inactive |
| > 100 | > 100 | > 100 | > 100 | > 100 | CC(C(=O)NCCOc1ccc2ccc(=O)oc2c1)c1ccc(-c2ccccc2)c(F)c1 (racemic) | Non-Toxic | Activity (Rattus norvegicus [3]): Active; Activity (Rattus norvegicus [4]): Active |
| – | > 100 | 85.4 | > 100 | > 100 | CC(C(=O)NCCOc1ccc2ccc(=O)oc2c1)c1cccc(C(=O)c2ccccc2)c1 (racemic) | Non-Toxic | Activity (Rattus norvegicus [2]): inactive |
| > 100 | > 100 | > 100 | > 100 | 54.7 | CC(C(=O)NCCOc1ccc2oc(=O)ccc2c1)c1cccc(C(=O)c2ccccc2)c1 (racemic) | – | – |

Further lines, the molecule ahead of its results:

| Compound | Ki (Carbonic anhydrase 12) [nM] | Ki (Carbonic anhydrase 1) [nM] | Ki (Carbonic anhydrase 2) [nM] | Ki (Carbonic anhydrase 7) [nM] | Ki (Carbonic anhydrase 9) [nM] | Activity (Rattus norvegicus [1]) | further results |
| --- | --- | --- | --- | --- | --- | --- | --- |
| CC(C)Cc1ccc(C(C)C(=O)NCCOc2ccc3oc(=O)ccc3c2)cc1 (stereo not given) | > 100 | > 100 | > 100 | > 100 | > 100 | – | Ki (Carbonic anhydrase 4): 0.44 nM |
| O=C(Cc1ccccc1Nc1c(Cl)cccc1Cl)NCCOc1ccc2ccc(=O)oc2c1 | – | > 100 | > 100 | > 100 | – | Non-Toxic | Ki (Carbonic anhydrase 4): 9.1 nM; Activity (Rattus norvegicus [2]): inactive |
| COc1ccc2c(c1)c(CC(=O)NCCOc1ccc3ccc(=O)oc3c1)c(C)n2C(=O)c1ccc(Cl)cc1 | – | > 100 | > 100 | > 100 | 20.1 | Non-Toxic | Activity (Rattus norvegicus [2]): inactive |
| COc1ccc2c(c1)c(CC(=O)NCCOc1ccc3oc(=O)ccc3c1)c(C)n2C(=O)c1ccc(Cl)cc1 | – | > 100 | > 100 | > 100 | 31.3 | Non-Toxic | Activity (Rattus norvegicus [3]): Active; Activity (Rattus norvegicus [4]): Active |
| CC(C)Cc1ccc(C(C)C(=O)NCCOc2ccc3ccc(=O)oc3c2)cc1 (racemic) | 39 | > 100 | > 100 | > 100 | > 100 | Non-Toxic | Activity (Rattus norvegicus [5]): Active; Activity (Rattus norvegicus [6]): 7.9 g; Ki (Carbonic anhydrase 4): 9.1 nM; Activity (Rattus norvegicus [7]): 63.8 g; Activity (Rattus norvegicus [8]): 11.1 g; Activity (Rattus norvegicus [9]): 61.3 g; Activity (Rattus norvegicus [10]): Active |
| O=C(c1ccccc1)c1ccc2n1CCC2C(=O)NCCOc1ccc2oc(=O)ccc2c1 (racemic) | > 100 | > 100 | > 100 | > 100 | 31.8 | – | – |
| CC1=C(CC(=O)NCCOc2ccc3ccc(=O)oc3c2)c2cc(F)ccc2/C1=C\c1ccc([S+](C)[O-])cc1 (stereo not given) | – | > 100 | > 100 | > 100 | 27.9 | Non-Toxic | Activity (Rattus norvegicus [3]): Active; Activity (Rattus norvegicus [11]): Active |
| CC1=C(CC(=O)NCCOc2ccc3oc(=O)ccc3c2)c2cc(F)ccc2/C1=C\c1ccc([S+](C)[O-])cc1 (stereo not given) | – | > 100 | > 100 | > 100 | 30.8 | – | – |
| O=C(c1ccccc1)c1ccc2n1CCC2C(=O)NCCOc1ccc2ccc(=O)oc2c1 (racemic) | > 100 | > 100 | > 100 | > 100 | > 100 | Non-Toxic | Activity (Rattus norvegicus [4]): Active |
| O=C(Cc1ccccc1Nc1c(Cl)cccc1Cl)NCCOc1ccc2oc(=O)ccc2c1 | – | > 100 | > 100 | > 100 | – | – | Ki (Carbonic anhydrase 4): 5.6 nM |
| CC(C)Cc1ccc(C(C)C(=O)O)cc1 (stereo not given) | – | – | – | – | – | – | Activity (Rattus norvegicus [12]): Active; Activity (Rattus norvegicus [13]): Active |
